Here are results for one compound from patent US8143246B2, “1-(4-(pyridin-2-yl)benzyl)imidazolidine-2,4-dione derivatives” (MSD OSS B.V., priority 2008, dated 2012).

The structures appear in SMILES notation.

Assay [1] concerns mechanical allodynia induced by spinal nerve ligation in rats. The assay can be described thus: Rat (Chung) model of neuropathic pain. The format is in vivo. To be noted: for Withdrawal threshold (g) at peak effect: p.o., male Wistar rats, von Frey, mean ± s.e.m. The protocol:
The Rat (Chung) Model of Neuropathic Pain
In this model, mechanical allodynia is induced by tight ligation of the left L5 spinal nerve.
Male Wistar rats (228-301 g body weight at time of surgery) were employed in the study. Rats were placed on an elevated (˜40 cm) mesh floor in perspex boxes and the rats' withdrawal threshold to a mechanical stimulus (calibrated von Frey filaments) was measured using filaments of increasing force (2.6-167 mN) as described above. The von Frey filaments were applied to the plantar surface of the paw and threshold response determined using the up and down method. A positive response was noted if the paw was sharply withdrawn. A cut-off of 15 g was selected as the upper limit for testing. Following baseline measurements each animal was anaesthetised and the L5 spinal nerve tightly ligated. The animals were allowed to recover from the surgery for a period of at least three days. On the day of drug administration the paw withdrawal thresholds were re-measured (0 min). Immediately after this reading, the rats were dosed orally with vehicle or test compound and readings measured at various time points after compound administration.
Data were expressed as mean±s.e.m. Statistical analysis was performed using the Kruskal-Wallis one-way analysis of variance, a non-parametric statistical test. Each of the treatment groups were then compared against the vehicle group, using the non-parametric Dunn's test.

Assay [2] has as its system mechanical hyperalgesia induced by complete Freund's adjuvant in rats. Briefly: Mechanical hyperalgesia in the rat (CFA inflammatory pain). It counts as in vivo. To be noted: for % Attenuation of hyperalgesia (peak effect): p.o., male Wistar rats, Randall-Sellito, 24 h after CFA, mean ± s.e.m. The protocol: Mechanical Hyperalgesia in the Rat
In this rat model of inflammatory pain, inflammation is induced by subcutaneous injection of complete Freund's adjuvant (CFA) into the hind paw. The associated mechanical hyperalgesia is quantified by measuring the reduction in paw withdrawal threshold (PWT) to mechanical compression the paw.
Experiments were conducted using male Wistar rats weighing (141-175 g). In brief, the rats' paw withdrawal threshold (PWT) to a mechanical compression of the hind paw was measured (baseline reading) using a Randall-Sellito apparatus (Ugo Basile). A cut-off of 20 g was employed to minimise tissue damage to the paw. The animals were then lightly anaesthetised with isoflurane (1-3%) and complete Freund's adjuvant (0.1 ml per paw) was injected subcutaneously (s.c.) into the plantar surface of the left hind paw. The animals were then returned to their home cage and left for the inflammation to develop. Twenty four hours after CFA injection, PWT's were re-measured (0 min) and immediately after this reading, rats were dosed orally with either vehicle or test compound (4.4-43.8 μmol/kg p.o. of compound 12). Readings were then made at 3 h post administration. Data were plotted as mean±s.e.m. and compared between groups using the Kruskal-Wallis one-way analysis of variance, a non-parametric statistical test. […] The percent attenuation of mechanical hyperalgesia is calculated as follows: […]

In the case of `CC(C)CN1C(=O)CN(Cc2ccc(-c3cccc(CN4CCCCC4)n3)cc2)C1=O` [Example 12, 3-Isobutyl-1-(4-(6-(piperidin-1-ylmethyl)pyridin-2-yl)benzyl)imidazolidine-2,4-dione], the “Effect on mechanical allodynia” value in assay [1] (oral, 120 and 180 min post drug administration) is given as “attenuated mechanical allodynia in a dose-dependent fashion”. Besides, the “Minimum effective dose (MED)” value in assay [1] (oral, mechanical allodynia) came to 43.8 µmol/kg. The “Withdrawal threshold (g) at peak effect” value turned out to be 2.40 ± 0.64 g in assay [1] (4.4 μmol/kg); 4.32 ± 1.63 g in assay [1] (13.2 μmol/kg); 8.97 ± 2.21 g in assay [1] (43.8 μmol/kg, p ≦ 0.01 vs vehicle). Further, in assay [2] (oral, 4.4-43.8 μmol/kg), the “Effect on mechanical hyperalgesia induced by CFA” value is “reversed mechanical hyperalgesia induced by CFA in a dose-dependent fashion”. In assay [2] (oral, CFA-induced mechanical hyperalgesia), the MED came out at 13.2 µmol/kg. Besides, the “% Attenuation of hyperalgesia (peak effect)” value in assay [2] (4.4 μmol/kg) was found to be 58.64 ± 27.32%; in assay [2] (13.2 μmol/kg, p ≦ 0.01 vs vehicle) it was 69.70 ± 12.88 %; in assay [2] (43.8 μmol/kg, p ≦ 0.001 vs vehicle), 116.74 ± 23.78 %.
